Laboratory results from ChEMBL document CHEMBL1201862, “PubChem BioAssay data set” (2004).
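96-well plates; 48 h exposure; 5 concentrations. Endpoints by linear interpolation between flanking doses. Not reached: highest tested concentration assigned. GI50 is the concentration that inhibits growth by half.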 Activity calls are given as the source filed them. Rule as the data show it: active = GI50 up to about 1.1 µM and inactive = higher.

Key:
Experiment in all cases: NCI anticancer screen, dose series, 48 h
SK-MEL-28 = system: SK-MEL-28
IGROV-1 = system: IGROV-1
MOLT-4 = system: MOLT-4
HCT-116 = system: HCT-116
A549 = system: A549
M14 = system: M14
UACC-62 = system: UACC-62
BT-549 = system: BT-549
SF-268 = system: SF-268
DU-145 = system: DU-145
HCC 2998 = system: HCC 2998
SNB-19 = system: SNB-19
SK-MEL-2 = system: SK-MEL-2
786-0 = system: 786-0
EKVX = system: EKVX
HOP-92 = system: HOP-92
SF-539 = system: SF-539
NCI/ADR-RES = system: NCI/ADR-RES
SF-295 = system: SF-295
MCF7 = system: MCF7

Measured: GI50

O=C(/N=N/c1ccccc1Cl)NNc1ccccc1Cl
inactive: SK-MEL-28 69.7 µM | IGROV-1 20.4 µM | MOLT-4 29.3 µM | HCT-116 20.5 µM | A549 55.5 µM | M14 56.8 µM | UACC-62 43.4 µM | BT-549 > 10 µM | SF-268 60.5 µM | DU-145 43.2 µM | HCC 2998 27.1 µM | SNB-19 63.2 µM | SK-MEL-2 32 µM | 786-0 18.5 µM

O=[N+]([O-])c1ccc(CSc2nncc3[nH]cnc23)cc1
inactive: EKVX > 100 µM | SK-MEL-28 > 100 µM | HOP-92 10.6 µM | IGROV-1 > 100 µM | MOLT-4 > 100 µM | SF-539 > 100 µM | HCT-116 > 100 µM | A549 > 100 µM | M14 > 100 µM | NCI/ADR-RES > 100 µM | SF-295 65.2 µM | UACC-62 62.4 µM | BT-549 85.3 µM | MCF7 > 100 µM | HCC 2998 > 100 µM | SK-MEL-2 83.6 µM | 786-0 > 100 µM

COc1ccc(/C=C2/C(C)=NN(c3cccc(Cl)c3)/C2=N/c2nc3ccccc3s2)cc1
inactive: EKVX 40.2 µM | SK-MEL-28 20.6 µM | HOP-92 20.9 µM | IGROV-1 20.7 µM | MOLT-4 24.9 µM | SF-539 26.7 µM | HCT-116 19.2 µM | M14 25.1 µM | NCI/ADR-RES 22.9 µM | SF-295 22.5 µM | SF-268 25.6 µM | MCF7 28.8 µM | DU-145 19.6 µM | HCC 2998 18.3 µM | SK-MEL-2 22.3 µM | 786-0 20.3 µM

CN(C)Cc1cc(C(=O)/C=C/c2ccc(Br)cc2)cc(CN(C)C)c1O
inactive: EKVX 13.2 µM | SK-MEL-28 12.2 µM | HOP-92 3.33 µM | IGROV-1 11.7 µM | MOLT-4 3.91 µM | SF-539 14.3 µM | HCT-116 6.14 µM | A549 8.22 µM | M14 4.79 µM | NCI/ADR-RES 16.7 µM | SF-295 5.58 µM | SF-268 18.2 µM | MCF7 6.61 µM | DU-145 12.6 µM | HCC 2998 13.7 µM | SNB-19 12.8 µM | 786-0 5.28 µM

COC1=CC(=O)c2c(CCNC(=O)OCc3ccccc3)n[nH]c2C1=O
inactive: EKVX 17.8 µM | SK-MEL-28 12.1 µM | IGROV-1 15.4 µM | MOLT-4 16.8 µM | SF-539 17.9 µM | HCT-116 12.4 µM | A549 19.6 µM | M14 12.6 µM | NCI/ADR-RES 75.9 µM | SF-295 20.6 µM | UACC-62 5.79 µM | BT-549 17.5 µM | MCF7 8.07 µM | HCC 2998 19 µM | SNB-19 14.7 µM | SK-MEL-2 11 µM | 786-0 17.5 µM

Nc1ccc(C2SCC(=O)N2NS(=O)(=O)c2cccc(C(=O)O)c2)cc1 (stereo not given)
inactive: EKVX > 100 µM | SK-MEL-28 > 100 µM | HOP-92 > 100 µM | IGROV-1 > 100 µM | MOLT-4 > 100 µM | SF-539 > 100 µM | HCT-116 > 100 µM | A549 > 100 µM | M14 > 100 µM | SF-295 > 100 µM | UACC-62 > 100 µM | BT-549 > 100 µM | SF-268 > 100 µM | MCF7 > 100 µM | DU-145 > 100 µM | HCC 2998 > 100 µM | SNB-19 > 100 µM | SK-MEL-2 > 100 µM | 786-0 > 100 µM

CC(=O)Nc1ccc(OC2=CCN(C)CC2)cc1
inactive: EKVX > 100 µM | SK-MEL-28 > 100 µM | IGROV-1 > 100 µM | MOLT-4 > 100 µM | HCT-116 > 100 µM | A549 > 100 µM | M14 > 100 µM | NCI/ADR-RES > 100 µM | SF-295 > 100 µM | UACC-62 > 100 µM | BT-549 > 100 µM | SF-268 > 100 µM | MCF7 > 100 µM | DU-145 > 100 µM | HCC 2998 > 100 µM | SNB-19 > 100 µM | SK-MEL-2 > 100 µM | 786-0 > 100 µM

NC(=S)N1N=C2c3ccccc3CCC[C@H]2[C@@H]1c1ccccc1
inactive: EKVX 9.23 µM | SK-MEL-28 10.5 µM | IGROV-1 2.36 µM | HCT-116 1.26 µM | A549 1.52 µM | SF-268 3 µM | DU-145 1.54 µM | HCC 2998 1.99 µM | SNB-19 1.37 µM
active: MOLT-4 0.638 µM | SF-539 0.518 µM | M14 0.315 µM | NCI/ADR-RES 0.348 µM | SF-295 1.03 µM | BT-549 0.406 µM | MCF7 0.472 µM | SK-MEL-2 0.236 µM | 786-0 1.01 µM

OCSc1nn(CO)c(=S)s1
inactive: EKVX 33.7 µM | SK-MEL-28 21.7 µM | HOP-92 11.4 µM | IGROV-1 17.7 µM | MOLT-4 23.4 µM | SF-539 23.4 µM | HCT-116 24.2 µM | A549 33.2 µM | M14 20.1 µM | NCI/ADR-RES 21.1 µM | SF-295 26.9 µM | UACC-62 17.5 µM | SF-268 21.6 µM | MCF7 15.4 µM | DU-145 23.8 µM | HCC 2998 22.1 µM | SNB-19 25.8 µM | SK-MEL-2 23 µM | 786-0 23.1 µM

COC(=O)C1=COC(OC2OC(CO)C(O)C(O)C2O)C2C3CN4CCc5c([nH]c6ccccc56)C4(CC12)O3 (stereo not given)
inactive: EKVX > 100 µM | SK-MEL-28 > 100 µM | IGROV-1 46.5 µM | MOLT-4 > 100 µM | SF-539 > 100 µM | HCT-116 > 100 µM | A549 > 100 µM | M14 > 100 µM | NCI/ADR-RES > 100 µM | SF-295 > 100 µM | UACC-62 > 100 µM | BT-549 > 100 µM | SF-268 31.9 µM | MCF7 > 100 µM | DU-145 > 100 µM | SNB-19 > 100 µM | SK-MEL-2 > 100 µM | 786-0 > 100 µM

C=C(C)[C@@H]1CCC2=C(CC[C@]3(C)[C@@H]([C@@H](CCC=C(C)C)C(=O)O)[C@H](O)C[C@@]23C)[C@@]1(C)CCC(=O)O [PORICOIC ACID G]
inactive: EKVX 44.6 µM | SK-MEL-28 66.8 µM | HOP-92 32.1 µM | IGROV-1 42.6 µM | MOLT-4 > 100 µM | SF-539 59.3 µM | HCT-116 54.1 µM | A549 42.1 µM | M14 99.8 µM | NCI/ADR-RES > 100 µM | SF-295 50.4 µM | BT-549 71.9 µM | SF-268 94.8 µM | DU-145 > 100 µM | SNB-19 46 µM | SK-MEL-2 70.3 µM | 786-0 85.9 µM
